Series [1] in a line: Gravimetric NO adsorption/desorption isotherms at 298K. Type of series: physicochemical. The protocol:
The nitric oxide adsorption/desorption profiles for two further chlorhexidine diacetate samples (25 mg) were collected using a bespoke gravimetric adsorption system. Each sample was exposed to high vacuum at a pressure of 1×10^−4 mbar overnight until no further mass loss was observed. The samples were cooled to 298K using a water bath (temperature accuracy of 0.02K).
For one sample, shown in the outer plot of FIGS. 2A-2B, NO was introduced in increasing increments. After each dose of NO, the mass of the sample was allowed to stabilise (indicating completion of adsorption) before the next addition was made. This process was continued until the introduced pressure of NO was equal to atmospheric pressure. The second sample was exposed to one atmosphere of NO in a single step, and its mass allowed to equilibrate. Data is shown in the inner plot of FIGS. 2A-2B. The desorption profiles of both samples, shown in FIGS. 2A-2B, were measured by reducing the pressure in increments to a final value of 2×10^−2 mbar.

A short description of series [2]: NO release triggered by constant flow of humid nitrogen gas (11% RH), chemiluminescence nitric oxide analyser. The class given is physicochemical. The note with it: humid nitrogen 11% RH; for total nitric oxide released: in 19 hr. The text has this: The release of NO from the sample was first triggered by passing a constant flow of humid nitrogen gas (11% RH) over it. The amount of NO released over time was detected using a Sievers NOA 280i chemiluminescence nitric oxide analyser until the emission of NO reached a level lower than 20 ppb.

Series [3] can be described thus: NO release from NO-loaded sample submersed in deionized water, chemiluminescence analysis. Type of series: physicochemical. Here is the method:
The NO-loaded sample was submersed under 5 ml of deionized water in a sealed chamber connected to an NO analyser. A constant flow of nitrogen was bubbled through the suspension while measuring the concentration of NO present in the chamber atmosphere.
The release of NO from the sample triggered by the water was measured in ppm and ppb over time until the level of NO dropped below 20 ppb. The initial burst release of NO reached 40 ppm. The sample released up to 0.035 mmol/g of nitric oxide in 7 hrs (FIG. 5A).

Series [4] is described as follows: NO release triggered by UV light (300-400 nm), chemiluminescence analysis.
Experimental: After the NO release was completed the sample was kept on the bench at room temperature, exposed to air and humidity for over 48 hr.
The release of NO over time was recorded using the same analyser described above.

Where a name gives a salt, the structure may show the parent alone.

As for `N=C(NCCCCCCNC(=N)NC(=N)Nc1ccc(Cl)cc1)NC(=N)Nc1ccc(Cl)cc1` [chlorhexidine diacetate], the “maximum NO adsorbed, molecules of NO per molecule of chlorhexidine” value in series [1] (NO pressure up to atmospheric) is 0.55 molecules of NO per molecule of chlorhexidine. The “maximum NO adsorbed” value in series [1] (NO pressure up to atmospheric, gravimetric) was ~0.9 mmole of NO per gram. The “level of stored NO after reapplication of vacuum, molecules per molecule of chlorhexidine” value in series [1] (desorption to 2x10^-2 mbar) is “circa 0.25 molecules per molecule of chlorhexidine”. Moreover, the “level of stored NO after reapplication of vacuum” value in series [1] (desorption to 2x10^-2 mbar, both samples) is around 0.4 mmole per gram. Besides, in series [2], the “initial burst of release of NO (peak)” value came out at 512 PPM. Further, the “total NO release” value in series [2] (in 18 hrs) is 0.03 mmol/g. The “total nitric oxide released” value in series [2] was “up to 0.042 mmol/g”; in series [3] (in water, in 7 hrs), “up to 0.035 mmol/g”. Also, the “initial burst release of NO (peak)” value in series [3] (100 mg under 5 ml deionized water, nitrogen bubbled) is on record as 40 ppm. Besides, in series [4] (burst from 30 ppb, after over 48 hr on bench in air and humidity), the “UV-triggered immediate burst of NO release” value is 105 ppb. The “maximum NO on continuous UV exposure” value in series [4] (continuous exposure about 5 mins, after over 48 hr storage in air) was “around 120 ppb”; in series [4] (sample in water, immediately after water-triggered release, about 10 minutes) it was “around 1000 ppb”. The “NO release level sustained under continuous UV exposure” value in series [4] (for more than 4 hrs) is “over 70 ppb”.
With `N=C(NCCCCCCNC(=N)NC(=N)Nc1ccc(Cl)cc1)NC(=N)Nc1ccc(Cl)cc1` [chlorhexidine dihydrochloride], the “duration of initial burst release of NO on humidity” value in series [2] was “a couple of minutes”. Moreover, in series [4] (after 2 days on bench in humid air), the “UV-triggered burst of NO (peak)” value is recorded as “up to 150 ppb”. The “NO level to which UV-triggered burst dropped” value in series [4] (over 1 hr, after 2 days in humid air) turned out to be 75 ppb.
Consider `O=C(O)c1cn(C2CC2)c2cc(N3CCNCC3)c(F)cc2c1=O` [ciprofloxacin], for which the “duration of initial burst release of NO on humidity” value in series [2] was “a couple of minutes”.
Turning to `NS(=O)(=O)c1cc(C(=O)O)c(NCc2ccco2)cc1Cl` [furosemide], in series [2], the “initial burst of release of NO (peak)” value is recorded as 512 ppm and the “total nitric oxide released” value is given as “up to 0.042 mmol/g”.

The values above are taken from patent US11344571B2, “NO containing compositions” (University Court of the University of St. Andrews, priority 2015, dated 2022).
